According to ChEMBL document CHEMBL1146580, “Acinospesigenin-A, -B, and -C: three new triterpenoids from Phytolacca acinosa” (2003):

System: Rattus norvegicus
Assay: Antiedemic activity against […]-induced paw edema in sc dosed Albino rat
Type: functional

SMILES	ED50
COC(=O)[C@@]1(C)CC[C@]2(C(=O)O)CC[C@]3(C)C(=C[C@@H](O)[C@@H]4[C@@]5(C)C[C@H](O)[C@H](O)[C@@](C)(C=O)[C@@H]5CC[C@]43C)[C@H]2C1	10 mg/kg
COC(=O)[C@@]1(C)CC[C@]2(C(=O)O)CC[C@]3(C)C(=CC[C@@H]4[C@@]5(C)C[C@H](O)[C@H](O)[C@@](C)(C=O)[C@@H]5CC[C@]43C)[C@H]2C1	10 mg/kg
C[C@]12CCC(=O)C=C1CC[C@@H]1[C@@H]2C(=O)C[C@@]2(C)[C@H]1CC[C@]2(O)C(=O)CO [CORTISONE]	30 mg/kg
C[C@]12C=CC(=O)C=C1CC[C@@H]1[C@@H]2[C@@H](O)C[C@@]2(C)[C@H]1CC[C@]2(O)C(=O)CO [PREDNISOLONE]	60 mg/kg
